Laboratory results from patent publication US9440952B2, “Compounds inhibiting leucine-rich repeat kinase enzyme activity” (Merck Sharp & Dohme Corp., priority 2013, dated 2016).

Each compound was assayed against T1, LRRK2(G2019S mutation, GST-LRRK2(amino acids 970-2527)) (Homo sapiens, UniProt Q5S007, G2019S) (assay: LRRK2 Km ATP LanthaScreen Assay). Details: Km ATP LanthaScreen Assay; LRRK2 G2019S; mean IC50 values; read-out: LRRK2 IC50.
T1 construct: GST-LRRK2(amino acids 970-2527); GST (N); purchased Life Technologies Corporation
Assay type: biochemical
How it was run: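 IC50 values are means of several runs in the Km-ATP LanthaScreen format, analysed by curve fitting of the LanthaScreen read-out.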

T1 sequence (Q5S007 970-2527 G2019S): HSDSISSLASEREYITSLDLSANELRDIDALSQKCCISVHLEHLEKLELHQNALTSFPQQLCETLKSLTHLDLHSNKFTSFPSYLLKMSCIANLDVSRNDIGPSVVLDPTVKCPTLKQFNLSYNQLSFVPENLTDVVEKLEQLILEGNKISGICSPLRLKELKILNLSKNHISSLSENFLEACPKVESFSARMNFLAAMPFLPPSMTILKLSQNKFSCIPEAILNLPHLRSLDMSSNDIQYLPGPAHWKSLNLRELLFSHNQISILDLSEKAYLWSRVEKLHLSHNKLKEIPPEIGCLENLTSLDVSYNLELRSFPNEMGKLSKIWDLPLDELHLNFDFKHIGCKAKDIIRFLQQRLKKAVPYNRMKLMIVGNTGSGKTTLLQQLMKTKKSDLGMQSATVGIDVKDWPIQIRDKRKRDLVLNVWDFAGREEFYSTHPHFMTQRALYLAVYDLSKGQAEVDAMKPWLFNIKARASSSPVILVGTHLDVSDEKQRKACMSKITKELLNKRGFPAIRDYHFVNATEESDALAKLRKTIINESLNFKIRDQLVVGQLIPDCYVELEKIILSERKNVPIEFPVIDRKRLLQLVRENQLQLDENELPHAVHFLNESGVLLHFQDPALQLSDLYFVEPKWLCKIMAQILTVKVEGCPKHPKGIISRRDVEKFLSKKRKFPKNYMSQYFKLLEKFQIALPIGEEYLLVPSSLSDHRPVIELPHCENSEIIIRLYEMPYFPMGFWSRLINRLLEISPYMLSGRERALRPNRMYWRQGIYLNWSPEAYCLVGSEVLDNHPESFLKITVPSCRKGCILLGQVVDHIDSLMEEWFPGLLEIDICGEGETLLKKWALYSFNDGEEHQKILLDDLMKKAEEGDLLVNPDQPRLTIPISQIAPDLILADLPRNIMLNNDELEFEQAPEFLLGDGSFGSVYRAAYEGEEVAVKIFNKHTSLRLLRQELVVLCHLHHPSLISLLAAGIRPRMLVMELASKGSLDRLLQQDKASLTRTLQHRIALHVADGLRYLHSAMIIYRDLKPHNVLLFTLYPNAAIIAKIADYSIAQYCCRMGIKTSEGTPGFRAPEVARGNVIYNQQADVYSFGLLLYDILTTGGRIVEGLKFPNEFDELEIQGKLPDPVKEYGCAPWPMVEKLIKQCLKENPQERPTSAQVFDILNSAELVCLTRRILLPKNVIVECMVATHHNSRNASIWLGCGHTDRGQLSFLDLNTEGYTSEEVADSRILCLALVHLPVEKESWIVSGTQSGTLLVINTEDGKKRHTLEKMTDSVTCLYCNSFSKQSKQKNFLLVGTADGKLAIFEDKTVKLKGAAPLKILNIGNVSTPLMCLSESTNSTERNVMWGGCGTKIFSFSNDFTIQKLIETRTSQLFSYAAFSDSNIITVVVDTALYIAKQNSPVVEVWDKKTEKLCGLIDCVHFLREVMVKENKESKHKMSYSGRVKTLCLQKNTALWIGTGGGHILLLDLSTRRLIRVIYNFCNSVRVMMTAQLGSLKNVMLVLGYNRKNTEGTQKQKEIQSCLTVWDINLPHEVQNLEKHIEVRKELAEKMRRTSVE

SMILES	IC50
[2H]C1([2H])OC([2H])([2H])C([2H])([2H])N(c2cc(-c3n[nH]c4ccc(OC(C)C)cc34)ccn2)C1([2H])[2H] [Example 281]	1.4 nM
CC(C)Oc1ccc2[nH]nc(-c3ccnc(N4C5CCC4COC5)c3)c2c1 [Example 282]	7.7 nM

Same assay, conditions: Km ATP LanthaScreen; mean IC50 of several tests; read-out: LRRK2 IC50

SMILES	IC50
CC(C)Oc1ccc2[nH]nc(-c3ccnc(NS(=O)(=O)c4ccc(C(C)(C)C#N)cc4)c3)c2c1 [Example 264]	68.8 nM
Cn1cc(-c2ccc3[nH]nc(-c4ccnc(N5CCN(CCO)CC5)c4)c3c2)cn1 [Example 265]	1.7 nM
Cn1cc(-c2ccc3[nH]nc(-c4ccnc(N5CCCCC5)c4)c3c2)cn1 [Example 266]	2.4 nM
Cn1cc(-c2ccc3[nH]nc(-c4ccnc(N5CCCC5)c4)c3c2)cn1 [Example 267]	2.9 nM
CO[C@H]1CN(c2cc(-c3n[nH]c4ccc(-c5cnn(C)c5)cc34)ccn2)C[C@@H]1O [Example 269]	4.2 nM
Cn1cc(-c2ccc3[nH]nc(-c4ccnc(N5CCC(n6cncn6)CC5)c4)c3c2)cn1 [Example 270]	2.2 nM
Cn1cc(-c2ccc3[nH]nc(-c4ccnc(N5C[C@H](F)[C@@H](F)C5)c4)c3c2)cn1 [Example 271]	2.2 nM
Cn1cc(-c2ccc3[nH]nc(-c4ccnc(N5CCc6oc(C7CC7)nc6C5)c4)c3c2)cn1 [Example 272]	5.8 nM
Cn1cc(-c2ccc3[nH]nc(-c4ccnc(N5CCC(F)(F)CC5)c4)c3c2)cn1 [Example 273]	3 nM
Cn1cc(-c2ccc3[nH]nc(-c4ccnc(N5CC(F)(F)C5)c4)c3c2)cn1 [Example 274]	4.2 nM
Cc1noc(C2CN(c3cc(-c4n[nH]c5ccc(-c6cnn(C)c6)cc45)ccn3)C2)n1 [Example 275]	5.6 nM
Cn1cc(-c2ccc3[nH]nc(-c4ccnc(N5CCN(c6nnc(C7CC7)o6)CC5)c4)c3c2)cn1 [Example 276]	2.7 nM
Cn1cc(-c2ccc3[nH]nc(-c4ccnc(N5CCN(c6ccncn6)CC5)c4)c3c2)cn1 [Example 277]	2.1 nM
Cn1cc(-c2ccc3[nH]nc(-c4ccnc(N5CC[C@H](F)C5)c4)c3c2)cn1 [Example 278]	1.9 nM
CN1CCN(c2cc(-c3n[nH]c4ccc(-c5cnn(C)c5)cc34)ccn2)CC1=O [Example 279]	2.9 nM
CC(C)Oc1ccc2[nH]nc(-c3ccnc(N4CC5CCC(C4)O5)c3)c2c1 [Example 280]	5 nM
CC(C)Oc1ccc2[nH]nc(-c3ccnc(N4CC5(COC5)C4)c3)c2c1 [Example 283]	5.9 nM
CC(C)Oc1ccc2[nH]nc(-c3ccnc(N4CC(C(=O)O)C4)c3)c2c1 [Example 284]	2.4 nM
CC(C)Oc1ccc2[nH]nc(-c3ccnc(N4CCC(F)(F)C4)c3)c2c1 [Example 286]	5.5 nM
CC(C)Oc1ccc2[nH]nc(-c3ccnc(N4CCC(F)(F)CC4)c3)c2c1 [Example 287]	14 nM

SMILES	IC50
CCOc1ccc2[nH]nc(-c3ccnc(N4CCC(F)(F)CC4)c3)c2c1 [Example 288]	22 nM
COC1CCN(c2cc(-c3n[nH]c4ccc(OC(C)C)cc34)ccn2)CC1 [Example 290]	6 nM
CCC(C)Oc1ccc2[nH]nc(-c3ccnc(N4CCOCC4)c3)c2c1 (stereo not shown) [Example 291]	2.2 nM
COCCNc1cc(-c2n[nH]c3ccc(OC(C)C)cc23)ccn1 [Example 292]	5.9 nM
CCCOc1ccc2[nH]nc(-c3ccnc(N4CCN(C)C(=O)C4)c3)c2c1 [Example 293]	15 nM
CCCOc1ccc2[nH]nc(-c3ccnc(N4CCN(C)CC4)c3)c2c1 [Example 294]	17 nM
CCCOc1ccc2[nH]nc(-c3ccnc(N4CCN(S(C)(=O)=O)CC4)c3)c2c1 [Example 295]	17 nM
CCOc1ccc2[nH]nc(-c3ccnc(N4CCC(OC)CC4)c3)c2c1 [Example 296]	7.5 nM
CCOc1ccc2[nH]nc(-c3ccnc(N4CCCC4)c3)c2c1 [Example 297]	7.3 nM
CCOc1ccc2[nH]nc(-c3ccnc(N4CCS(=O)(=O)CC4)c3)c2c1 [Example 298]	51 nM
CC(C)Oc1ccc2[nH]nc(-c3ccnc(N4CCN(CCO)CC4)c3)c2c1 [Example 299]	2 nM
CCCOc1ccc2[nH]nc(-c3ccnc(N4CCCCC4)c3)c2c1 [Example 300]	31 nM
CCCOc1ccc2[nH]nc(-c3ccnc(N4CCOCC4)c3)c2c1 [Example 301]	12 nM
CC(C)Oc1ccc2[nH]nc(-c3ccnc(N4CCCC4=O)c3)c2c1 [Example 302]	24 nM
CC(C)Oc1ccc2[nH]nc(-c3ccnc(N4CCOC4=O)c3)c2c1 [Example 303]	16 nM
Cn1cc(-c2ccc3[nH]nc(-c4ccnc(N5CCC(C(=O)O)CC5)c4)c3c2)cn1 [Example 304]	3.6 nM
COCC(C)Oc1ccc2[nH]nc(-c3ccnc(N4CCOCC4)c3)c2c1 (stereo not shown) [Example 305]	5.4 nM
FC1CN(c2cc(-c3n[nH]c4ccc(-c5cccnc5)cc34)ccn2)C1 [Example 306]	2.9 nM
Cc1ncc(-c2ccc3[nH]nc(-c4ccnc(N5CC(F)C5)c4)c3c2)n1C [Example 307]	2.1 nM
Cc1nnc(-c2ccc3[nH]nc(-c4ccnc(N5CC(F)C5)c4)c3c2)o1 [Example 308]	4.9 nM

SMILES	IC50
Cn1cnnc1-c1ccc2[nH]nc(-c3ccnc(N4CC(F)C4)c3)c2c1 [Example 309]	1.8 nM
Cc1ncc(-c2cc3c(-c4ccnc(N5CC(F)C5)c4)n[nH]c3cc2F)n1C [Example 310]	95 nM
CC(C)Oc1ccc2[nH]nc(-c3ccnc(N4CCN(C)C(=O)C4)c3)c2c1 [Example 312]	2.6 nM
Cn1cncc1-c1ccc2[nH]nc(-c3ccnc(N4CCOCC4)c3)c2c1 [Example 313]	< 0.6 nM
COc1cccc(F)c1-c1ccc2[nH]nc(-c3ccnc(N4CCOCC4)c3)c2c1 [Example 314]	< 0.6 nM
Oc1ccc(-c2ccc3[nH]nc(-c4ccnc(N5CCOCC5)c4)c3c2)cn1 [Example 315]	39 nM
Cc1ncc(-c2ccc3[nH]nc(-c4ccnc(N5CCOCC5)c4)c3c2)n1C [Example 317]	1.4 nM
Cc1nn(C)cc1-c1ccc2[nH]nc(-c3ccnc(N4CCOCC4)c3)c2c1 [Example 318]	17 nM
c1cc(-c2ccc3[nH]nc(-c4ccnc(N5CCOCC5)c4)c3c2)cnn1 [Example 319]	8.2 nM
COc1ccnc(Cl)c1-c1ccc2[nH]nc(-c3ccnc(N4CCOCC4)c3)c2c1 [Example 320]	< 0.6 nM
c1cc(-c2n[nH]c3ccc(-c4cnco4)cc23)cc(N2CCOCC2)n1 [Example 322]	0.66 nM
COc1ccncc1-c1cc2c(-c3ccnc(N4CCOCC4)c3)n[nH]c2cc1F [Example 323]	< 0.6 nM
c1cnc(-c2ccc3[nH]nc(-c4ccnc(N5CCOCC5)c4)c3c2)cn1 [Example 324]	1.1 nM
c1cc(-c2n[nH]c3ccc(-c4ncco4)cc23)cc(N2CCOCC2)n1 [Example 325]	6.9 nM
c1cnnc(-c2ccc3[nH]nc(-c4ccnc(N5CCOCC5)c4)c3c2)c1 [Example 326]	6.4 nM
c1cc(-c2n[nH]c3ccc(-c4cncs4)cc23)cc(N2CCOCC2)n1 [Example 327]	< 0.6 nM
COc1ccc(-c2ccc3[nH]nc(-c4ccnc(N5CCOCC5)c4)c3c2)c(OC)n1 [Example 328]	189 nM
CCc1cnc(-c2ccc3[nH]nc(-c4ccnc(N5CCOCC5)c4)c3c2)nc1 [Example 330]	5.6 nM
CC(C)(O)Cc1ccc2[nH]nc(-c3ccnc(N4CCOCC4)c3)c2c1 [Example 332]	93 nM
